# Calls of active or inactive are those of the source. No rule for the calls is given here.
# Tested on: Trypanosoma brucei growth inhibition, luminescence
# Test: antitrypanosomal activity against T. brucei – luminescence (AID 1159562);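 also: parasites grew with compound for 24 h before the luminescence read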
row,SMILES,IC50
1,Cn1c(CC(=O)NNC(=O)c2ccc3ccccc3n2)nc2ccccc21,6300 nM
2,CN(C)S(=O)(=O)c1cccc(C(=O)Nc2nc(-c3ccccn3)cs2)c1,630 nM
3,COc1ccc2ncc(Cl)c(CCN3CC[C@@H](NCc4cc5c(cn4)OCS5)[C@H](O)C3)c2n1,400 nM
4,N#CN1CC[C@@H](NC(=O)Nc2ccccc2Oc2ccccc2)C1,7900 nM
5,Cc1nc2c(-c3cccs3)c(C)nn2c(NCCO)c1C,200 nM
6,Cc1ccc(S(=O)(=O)Cn2nnnc2C(c2cccnc2)N2CCN(c3ccccc3)CC2)cc1 (configuration not stated),> 40000 nM (inactive)
7,O=C(Nc1ccc(S(=O)(=O)N2CCCC2)cc1)c1ccc([N+](=O)[O-])s1,200 nM
8,Cc1cc(Nc2cc(C3CC3)[nH]n2)nc(N2CCC[C@H]2C(N)=O)n1,63 nM
9,O=c1cc(NCCCNCc2cc(C(F)(F)F)cs2)[nH]c2ccccc12,400 nM
10,Cc1ccccc1NS(=O)(=O)c1ccc2[nH]cc(C(=O)NC3CCCC(C)C3C)c(=O)c2c1 (configuration not stated),630 nM
11,CCNc1cc(-c2ccccn2)nc(Nc2ccccc2)n1,13000 nM
12,CC(=O)NCCNc1cc(-c2ccnc(Nc3cccc(Cl)c3)n2)ccn1,200 nM
13,Cc1nn(C)c(Cl)c1CN(Cc1cccnc1)Cc1ccsc1,> 40000 nM (inactive)
14,O=C(NCc1ccc(Cl)cc1)C1CN(C(=O)c2ccc(F)cc2)CCS1 (configuration not stated),630 nM
15,CN(C)c1ncc(-c2cncn2CCOc2ccc(Cl)cc2)cn1,> 40000 nM (inactive)
16,N#Cc1cc([N+](=O)[O-])ccc1NC1CCCCCC1,3200 nM
17,CCN(CC)S(=O)(=O)c1ccc(C)c(NC(=O)c2cc(Cl)c3c(c2)OCO3)c1,160 nM
18,CN1CCN(c2nc(-c3ccc(Cl)cc3)c3c(N)n(C)nc3n2)CC1,32000 nM
19,CCS(=O)(=O)c1cccc(C(=O)Nc2nc(-c3ccccn3)cs2)c1,630 nM
20,Cn1nc([N+](=O)[O-])nc1N1CCCCC1,> 40000 nM (inactive)
21,O=C(NCc1ccc(-n2cccc2)cc1)c1nc(Cn2ccc([N+](=O)[O-])n2)no1,> 40000 nM (inactive)

row,SMILES,IC50
1,COc1ccc(OC)c2c(=O)c(Cc3ccccc3)c(C)[nH]c12,> 40000 nM (inactive)
2,Cn1cncc1CN1CCC2(CC1)COC(Cc1ccccc1)C2 (configuration not stated),> 40000 nM (inactive)
3,COc1ccc(C(C)N(C)c2ncc3c(N)nc(N)nc3n2)cc1F (configuration not stated),5000 nM
4,CNC(=O)C1Cc2ccccc2N1C(=O)Cc1ccccc1 (configuration not stated),1000 nM
5,N#Cc1c(Oc2cccc(Cl)c2)cccc1[N+](=O)[O-],5 nM
6,NC(=O)c1ccc(-c2cccc(OCCN3CCN(C4CCCCC4)CC3)c2)cc1,16000 nM
7,CNc1nc(C)nc(N2CCc3cc(C(=O)NCc4ccc(-c5nccn5C)cc4Cl)ccc32)n1,20000 nM
8,Cc1ccc2nc(N(Cc3cccnc3)C(=O)CCc3ccccc3)sc2c1,20000 nM
9,O=C(C1CCCCC1)N1CCN(c2nnc(-c3ccccc3)c3ccccc23)CC1,> 40000 nM (inactive)
10,Cc1cc(Br)sc1CNCCCNc1cc(=O)c2ccccc2[nH]1,100 nM
11,CN1CCC(N(C)c2nccc(N3CCN(C(=O)c4cccc(-c5cccnc5)c4)CC3)n2)CC1,1000 nM
12,COc1ccc(C(=O)[C@H]2C[C@@H]2CN(Cc2ccccn2)Cc2ccccn2)cc1,16000 nM
13,O=C(Nc1n[nH]c(-c2ccccn2)n1)C1CC1c1ccccc1 (configuration not stated),20000 nM
14,COc1ccc2ncc(F)c(CCN3CC[C@@H](NC(=O)c4cc5c(s4)CCC5)[C@@H](O)C3)c2n1,320 nM
15,O=c1[nH]ccc2ccc(-c3ccncc3)cc12,> 40000 nM (inactive)
16,CCC1Oc2cc(S(=O)(=O)N(C)CC(=O)N3CCc4ccccc4C3)c(C)cc2NC1=O (configuration not stated),32000 nM
17,O=c1[nH]c(NCCCNCc2cc(Br)cc(Br)c2)nc2ccsc12,100 nM
18,COc1ccc(-c2csc(NC(=O)c3ccc([N+](=O)[O-])s3)n2)cc1,790 nM
19,Cc1ccc(NC(=O)C(C)n2nc([N+](=O)[O-])c(Br)c2C)cc1Cl (configuration not stated),> 40000 nM (inactive)
20,Cn1nc([N+](=O)[O-])nc1Oc1ccc(C(=O)c2ccccc2)cc1,> 40000 nM (inactive)
21,COc1ccc2ncc(=O)n(CCN3CC[C@H](NCc4ncc(Cl)c5[nH]ncc45)[C@H](O)C3)c2n1,500 nM
